For experiment [1], the system named is cyclin-D1 promoter reporter in RKO cells. The experiment can be described thus: β-catenin-responsive cyclin-D1 promoter reporter assay. The experiment is classed as cell-based, human. Particulars: SPT treatment, data not shown. Here is the method:
Reporter assays were performed as described previously using the β-catenin-responsive TCF reporter and the cyclin D1 reporter. Briefly, prior to transfection, RKO cells were plated in six-well tissue culture dishes and grown until they reached 80%-90% confluence. Cells were transfected with 500 ng of pGL3-OT, a TCF-LEF-responsive reporter, or pGL3-OF, a negative control with a mutated TCF-LEF binding site in combination with 10 ng of pRL-CMV vector. Twenty-four hours post-transfection, cells were treated with either vehicle (DMSO) control or with 700 μM SPT for 24 hours. According to the manufacturer's instructions, Firefly luciferase activity was measured via a luminometer (BD Biosciences) and normalized to the Renilla luciferase activities by using the Dual Luciferase Reporter System (Promega, Madison, Wis., United States).
(Reporter assays use an easily measured gene product as a stand-in for the process of interest.)

Experiment [2] has as its system SFRP1 and SFRP2 genes in MCF7 cells. The experiment can be described thus: RT-PCR re-expression of silenced tumor suppressor genes in MCF7 cells. It is filed as cell-based, human. Conditions: sirtuin inhibitors, data not shown. Here is the method: (§1) Cell culture and retroviral infection. MDA-MB-231, MCF7, HCT116, SW480 RKO, and Phoenix cells (ATCC, Rockville, Md., United States) were cultured in Dulbecco's modified Eagle's medium supplemented with 10% fetal bovine serum and 1% penicillin/streptomycin (Invitrogen, Carlsbad, Calif., United States). Retroviral infection was performed using either single or multiple rounds of infection. Briefly, Phoenix cells were transfected with either pBabe, pBabe-SIRT1H363Y, pSUPERretro, pSUPERretro-SIRT1-RNAi-1-3 (NM_012238 positions 410, 589, and 1091; Oligo Engine, Seattle, Wash., United States) using Lipofectamine 2000 (Invitrogen). After 48 h of transfection, the medium containing retrovirus was collected, filtered, and supplemented with Polybrene prior to infection of target cells (MDA-MB-231, MCF7, or HCT116). Infected cells were either harvested 24-48 hours later or subjected to selection with 2-3 μg/ml puromycin for a week prior to harvest and analysis.
(§2) RNA and protein preparation and analysis. Total RNA was extracted (Invitrogen) according to the manufacturer's instructions and subjected to reverse transcription followed by both quantitative real-time and semi-quantitative polymerase chain reaction. For quantitative real-time analyses, the QuantiTect SYBR Green PCR kit (Qiagen, Valencia, Calif., United States) was used and the amplification conditions consisted of an initial 10-minutes denaturation step at 95° C., followed by 40 cycles of denaturation at 95° C. for 15 s and annealing and extension for 30 seconds and 60 seconds, respectively. A BioRad iCycler was used (BioRad, Hercules, Calif., United States), and for quantitation the comparative cycle threshold (Ct) method was used, normalizing the Ct values for the indicated gene to the Ct values of GAPDH relative to a control sample. For conventional PCR, at least two independent sets of intron-spanning primers were used for the analysis of multiple genes, such as CRBP1, (NM_002899), E-cadherin, (L34545), SFRP1, (BC036503), SFRP2, (BC008666), and Gata-4 (L34357). For Western blots, cells stably expressing RNAi constructs were harvested in 50 mM Tris-HCl, 1% NP-40, 0.25% sodium deoxycholate, 150 mM NaCl, 50 mM sodium fluoride, 1 mM dithiothreitol, 1 mM AEBSF, 1× Complete protease inhibitor cocktail (Roche, Basel, Switzerland). Protein concentrations were measured by BCA (Pierce Biotechnology, Rockford, Ill., United States). […] On the same blot, β-actin (Sigma, St. Louis, Mo., United States) was probed to ensure equal loading.

The subject of experiment [3] is SFRP1, SFRP2, E-cadherin, CRBP1 genes in MDA-MB-231 cells. The experiment can be described thus: RT-PCR re-expression of silenced tumor suppressor genes in MDA-MB-231 cells. The experiment is classed as cell-based, human. Here is the method:
The panels of FIG. 2 are as follows. […] MDA-MB-231 cells were treated with 15 mM NIA or 300 μM SPT for 21 hours, RNA was isolated, and RT-PCR was performed with intron-spanning primers specific for the indicated genes. Control samples in which no reverse transcriptase was added were analyzed separately, and all were negative for amplification of the indicated genes. […] MDA-MB-231 cells were treated with either 50 nM Aza (+), 100 μM SPT (+) or with both Aza and SPT (++), and 34 hours later, RT-PCR was performed for the indicated genes as described in FIG. 2(A). […] MDA-MB-231 cells were treated with either 0, 50, 100, or 120 μM SPT alone for 34 hours, or the treatment was followed by treatment with 300 nM TSA for 3 hours prior to RNA isolation and RT-PCR analysis. […] MDA-MB-231 cells were infected with low titers of virus for shRNA specific for SIRT1. Aza (100 nM) was added 24 hours prior to RNA isolation, and RT-PCR analysis was performed for the genes SFRP 1, SFRP2, and GAPDH as described in FIG. 2(A). […] As shown in the left panel, MDA-MB-231 cells were infected with a control (vec) or mutant SIRT1 virus (HY), and RT-PCR was performed as described in FIG. 2(A). MDA-MB-231 cells were infected with low titers of pBabe or pBabe-SIRT1H363Y retrovirus and subsequently treated with 100 nM Aza for 24 hours or with 300 nM TSA for 3 hours prior to harvest, and RT-PCR was performed.
as §1, §2

Experiment [4] has as its system β-catenin-responsive TCF reporter (Wnt pathway) in RKO cells. Description: β-catenin-responsive TCF reporter assay. The experiment is classed as cell-based, human. Particulars: 700 μM SPT for 24 hours. As for the experimental part: The panels of FIG. 6. […] Error bars indicate standard deviation from the average of three experiments. FIG. 6(B) provides the results obtained from experiments in which RKO cells were transfected with 500 ng of pGL3-OT, a TCF-LEF-responsive reporter, or pGL3-OF, a negative control with a mutated TCF-LEF binding site in combination with 10 ng of pRL-CMV vector. Twenty-four hours post-transfection, cells were treated with either vehicle (DMSO) control or with 700 μM SPT for 24 hours. Firefly luciferase activity was measured and normalized to the Renilla luciferase activities. The experiments shown in FIG. 6(C) were performed as described in FIG. 6(A), in which pooled populations of MDA-MB-231 cells stably expressing RNAi-2 or RNAi-3 were harvested, protein concentrations were determined, and Western blot analysis was performed. An antibody that specifically recognizes the unphosphorylated (active) form of β-catenin was used, and on the same blot, β-actin was probed to ensure equal loading. […]
Reporter assays were performed as described previously using the β-catenin-responsive TCF reporter and the cyclin D1 reporter. […] According to the manufacturer's instructions, Firefly luciferase activity was measured via a luminometer (BD Biosciences) and normalized to the Renilla luciferase activities by using the Dual Luciferase Reporter System (Promega, Madison, Wis., United States).

The target of another experiment is T1, SIRT1 (Homo sapiens, UniProt Q96EB6).
T1 sequence (Q96EB6 1-747): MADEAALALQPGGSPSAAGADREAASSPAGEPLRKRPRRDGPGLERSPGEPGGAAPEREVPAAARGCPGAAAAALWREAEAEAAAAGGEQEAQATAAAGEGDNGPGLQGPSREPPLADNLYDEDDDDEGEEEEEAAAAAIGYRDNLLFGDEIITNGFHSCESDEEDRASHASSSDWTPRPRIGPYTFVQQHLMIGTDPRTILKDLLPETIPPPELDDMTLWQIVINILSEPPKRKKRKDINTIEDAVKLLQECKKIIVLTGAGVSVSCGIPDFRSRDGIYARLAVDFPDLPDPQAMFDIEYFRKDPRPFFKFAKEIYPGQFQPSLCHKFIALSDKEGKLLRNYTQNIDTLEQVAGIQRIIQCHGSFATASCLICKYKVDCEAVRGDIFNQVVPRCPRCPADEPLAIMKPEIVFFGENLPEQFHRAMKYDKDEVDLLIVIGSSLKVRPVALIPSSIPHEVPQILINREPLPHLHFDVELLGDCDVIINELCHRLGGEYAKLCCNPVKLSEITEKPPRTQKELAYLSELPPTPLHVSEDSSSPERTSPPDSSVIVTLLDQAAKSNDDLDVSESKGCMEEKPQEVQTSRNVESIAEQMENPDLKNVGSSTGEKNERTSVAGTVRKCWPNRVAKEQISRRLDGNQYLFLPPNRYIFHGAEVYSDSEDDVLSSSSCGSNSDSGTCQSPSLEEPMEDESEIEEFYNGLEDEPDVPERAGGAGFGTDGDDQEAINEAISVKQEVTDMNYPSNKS
The experiment can be described thus: SIRT1 p53-382 IC50 assay. The experiment is classed as biochemical.

For the compound `O=C1CCc2c(ccc3ccccc23)O1` [SPT, splitomicin, reference compound], in experiment [1], the “reduction in the activation of a β-catenin-responsive cyclin-D1 promoter reporter construct” value was 50%. Further, in experiment [2], the “re-expression of epigenetically silenced, hypermethylated TSGs” value is “could cause the re-expression”. The “re-expression of the gene panel, single agent at low dose” value in experiment [3] (Aza (50 nM) or SPT (50 μM) alone) is recorded as “ineffective as single agents”. Besides, the “re-expression of epigenetically silenced, hypermethylated TSGs incl. CRBP1” value in experiment [3] (MDA-MB-231 cells, 15 mM NIA or 300 μM SPT for 21 hours) is on record as “could cause the re-expression”. In addition, the “reduction in the activation of a β-catenin-responsive TCF reporter construct” value in experiment [4] was found to be 50%.

In general, IC50 refers to the concentration needed to halve the response being measured. Take `O=C(NO)C1CCCc2c1[nH]c1ccc(Cl)cc21` (stereo not drawn) [Compound 7, 6-Chloro-2,3,4,9-tetrahydro-1H-carbazole-1-carboxylic acid hydroxyamide]: the IC50 on SIRT1 is greater than 10 µM.

For the origin of these results see patent US20110104177A1, “HISTONE DEACETYLASE INHIBITORS, COMBINATION THERAPIES AND METHODS OF USE” (THE JOHNS HOPKINS UNIVERSITY, priority 2006, published 2011).
